How the values were obtained:
Aβ42 = experiment: Method 2: Aβ42 Alphalisa on supernatant of SKNBE2 cells carrying APP 695 wild type; assay type: cell-based; conditions: Homo sapiens, SKNBE2 cells APP 695 wild type, overnight
Outline: (§1)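 SKNBE2 cells expressing wild-type APP695 (10^4/well) were incubated overnight at 37 °C with compound at several concentrations. Secreted Aβ42 (C-terminal/N-terminal antibody pair) and Aβtotal (N-terminal/4G8 pair) were measured by AlphaLISA in the supernatant. IC50 values came from 4-parameter fits of percent of untreated control.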

Aβtotal [1] = experiment: Method 2: Aβtotal Alphalisa on supernatant of SKNBE2 cells carrying APP 695 wild type; assay type: cell-based; conditions: Homo sapiens, SKNBE2 cells APP 695 wild type, overnight
Outline: as §1

Aβtotal [2] = experiment: In vivo efficacy: Aβtotal in brain (ELISA); parameters: species or system mouse; conditions: brain soluble fraction; typical protocol: single oral dose, overnight fasted animals, after four hours
Text: To determine whether acute administration of an Aβ42 lowering agent would reduce Aβ42 levels in vivo, non-transgenic rodents, e.g. mice or rats were used. Alternatively, two to three month old Tg2576 mice expressing APP695 containing the “Swedish” variant can be used or a transgenic mouse model developed by Dr. Fred Van Leuven (K.U.Leuven, Belgium) and co-workers, with neuron-specific expression of a clinical mutant of the human amyloid precursor protein [V717I] (Moechars et al., 1999 J. Biol. Chem. 274, 6483). Young transgenic mice have high levels of Aβ in the brain but no detectable Aβ deposition. At approximately 6-8 months of age, the transgenic mice start to display spontaneous, progressive accumulation of β-amyloid (A13) in the brain, eventually resulting in amyloid plaques within the subiculum, hippocampus and cortex. Animals treated with the Aβ42 lowering agent were examined and compared to those untreated or treated with vehicle and brain levels of soluble Aβ42 and total Aβ would be quantitated by standard techniques, for example, using ELISA. Treatment periods varied from hours to days and were adjusted based on the results of the Aβ42 lowering once a time course of onset of effect could be established.
A typical protocol for measuring Aβ42 lowering in vivo is shown but it is only one of many variations that could be used to optimize the levels of detectable Aβ. For example, Aβ42 lowering compounds were formulated in 20% of Captisol® (a sulfobutyl ether of β-cyclodextrin) in water or 20% hydroxypropyl β cyclodextrin. The Aβ42 lowering agents were administered as a single oral dose or by any acceptable route of administration to overnight fasted animals. After four hours, the animals were sacrificed and Aβ42 levels were analysed.
Blood was collected by decapitation and exsanguinations in EDTA-treated collection tubes. Blood was centrifuged at 1900 g for 10 minutes (min) at 4° C. and the plasma recovered and flash frozen for later analysis. The brain was removed from the cranium and hindbrain. The cerebellum was removed and the left and right hemisphere were separated. The left hemisphere was stored at −18° C. for quantitative analysis of test compound levels. The right hemisphere was rinsed with phosphate-buffered saline (PBS) buffer and immediately frozen on dry ice and stored at −80° C. until homogenization for biochemical assays.
Mouse brains were resuspended in 10 volumes of 0.4% DEA (diethylamine)/50 mM NaCl pH 10 (for non-transgenic animals) or 0.1% 3-[(3-cholamidopropyl)-dimethyl-ammonio]-1-propanesulfonate (CHAPS) in tris buffered saline (TBS) (for transgenic animals) containing protease inhibitors (Roche-11873580001 or 04693159001) per gram of tissue, e.g. for 0.158 g brain, add 1.58 ml of 0.4% DEA. All samples were sonicated for 30 sec on ice at 20% power output (pulse mode). Homogenates were centrifuged at 221.300×g for 50 min. The resulting high speed supernatants were then transferred to fresh tubes and were optionally further purified before the next step. A portion of the supernatant was neutralized with 10% 0.5 M Tris-HCl and this was used to quantify Aβtotal.
The obtained supernatants were purified with Water Oasis HLB reverse phase columns (Waters Corp., Milford, Mass.) to remove non-specific immunoreactive material from the brain lysates prior subsequent Aβ detection. Using a vacuum manifold, all solutions were passed through the columns at a rate of approximately 1 ml/min, so the vacuum pressure was adjusted accordingly throughout the procedure. Columns were preconditioned with 1 ml of 100% MeOH, before equilibration with 1 ml of H2O, Non-neutralized brain lysates were loaded onto the columns. The loaded samples were then washed twice with the first wash performed with 1 ml of 5% MeOH, and the second wash with 1 ml of 30% MeOH. Finally, the Aβ was eluted from the columns and into 100×30 mm glass tubes, with a solution of 90% MeOH with 2% NH4OH. […]

| Structure (SMILES) | IC50 (Aβ42) [µM] | IC50 (Aβtotal [1]) [µM] | Aβtotal (% Ctrl) _Mean (Aβtotal [2]) [% Ctrl] | melting point [°C] |
| --- | --- | --- | --- | --- |
| COc1cccc(-n2cc3cccc(Nc4ccc(-n5cnc(C)c5)c(OC)c4)c3n2)c1 [Compound 1, N-[3-methoxy-4-(4-methyl-1H-imidazol-1-yl)phenyl]-2-(3-methoxyphenyl)-2H-indazol-7-amine] | 0.081 | 8.32 | 108 |  |
| COc1cc(Nc2cccc3cn(CC4CC4)nc23)ccc1-c1cnc(C)o1.Cl [Compound 38, 2-(cyclopropylmethyl)-N-[3-methoxy-4-(2-methyl-5-oxazolyl)phenyl]-2H-indazol-7-amine HCl] | 0.234 | 4.68 | 106 |  |
| COc1cccc(-n2nc3c(Nc4ccc(-n5cnc(C)c5)c(OC)c4)cccc3c2C)c1 [Compound 2, N-[3-methoxy-4-(4-methyl-1H-imidazol-1-yl)phenyl]-2-(3-methoxyphenyl)-3-methyl-2H-indazol-7-amine] | 0.007 | 6.46 | 90 | 184.4 |
| COc1cc(Nc2cccc3cn(Cc4ccc(F)cc4)nc23)ccc1-n1cnc(C)c1 [Compound 15, 2-[(4-fluorophenyl)methyl]-N-[3-methoxy-4-(4-methyl-1H-imidazol-1-yl)phenyl]-2H-indazol-7-amine] | 0.014 | 6.61 | 94 |  |
| COc1cc(Nc2cccc3cn(CC(F)(F)F)nc23)ccc1-c1cnc(C)o1 [Compound 6, N-[3-methoxy-4-(2-methyl-5-oxazolyl)phenyl]-2-(2,2,2-trifluoroethyl)-2H-indazol-7-amine] | 0.162 | 3.98 | 95 |  |
| COc1cccc(-n2nc3c(Nc4ccc(-c5cnc(C)o5)cc4)cccc3c2C)c1 [Compound 29, 2-(3-methoxyphenyl)-3-methyl-N-[4-(2-methyl-5-oxazolyl)phenyl]-2H-indazol-7-amine] | 0.015 | > 10 | 98 | 152.2 |
| COc1cccc(-n2nc3c(Nc4ccc(-c5cnc(C)o5)c(OC)c4)nccc3c2C)c1 [Compound 42, N-[3-methoxy-4-(2-methyl-5-oxazolyl)phenyl]-2-(3-methoxyphenyl)-3-methyl-2H-pyrazolo[3,4-c]pyridin-7-amine] | 0.12 | 4.37 | 100 | 194.4 |
